{"source": "paper PMC4914611", "about": "(Nature nanotechnology, 2013)", "biological_target": "CM11CD746~1R~TET (Chara corallina, UniProt Q9SSU1)", "sequence (Q9SSU1 1-746)": "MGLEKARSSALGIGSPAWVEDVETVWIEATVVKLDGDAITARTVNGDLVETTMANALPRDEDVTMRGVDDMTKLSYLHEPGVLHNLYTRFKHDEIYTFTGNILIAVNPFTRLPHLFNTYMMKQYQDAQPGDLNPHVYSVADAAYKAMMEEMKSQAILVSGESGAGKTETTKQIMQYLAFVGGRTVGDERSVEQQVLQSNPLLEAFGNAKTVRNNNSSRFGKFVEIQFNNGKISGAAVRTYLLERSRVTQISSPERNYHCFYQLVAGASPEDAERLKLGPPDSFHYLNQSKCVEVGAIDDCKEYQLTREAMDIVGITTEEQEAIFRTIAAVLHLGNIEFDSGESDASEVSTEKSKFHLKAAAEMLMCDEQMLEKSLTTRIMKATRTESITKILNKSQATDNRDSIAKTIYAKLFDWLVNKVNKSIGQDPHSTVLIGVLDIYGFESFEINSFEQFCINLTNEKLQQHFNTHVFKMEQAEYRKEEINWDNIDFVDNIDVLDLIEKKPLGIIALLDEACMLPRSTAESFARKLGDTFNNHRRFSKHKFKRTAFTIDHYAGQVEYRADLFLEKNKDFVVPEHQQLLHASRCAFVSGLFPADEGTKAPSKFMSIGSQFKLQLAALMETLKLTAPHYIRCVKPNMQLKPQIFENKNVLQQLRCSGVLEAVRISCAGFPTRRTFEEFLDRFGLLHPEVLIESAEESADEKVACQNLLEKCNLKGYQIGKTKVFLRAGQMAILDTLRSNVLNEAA", "settings": "actin filaments; 25 mM imidazole, 25 mM KCl, 1 mM EGTA, 2 mM free Mg2+", "data": [{"smiles": "Nc1ncnc2c1ncn2[C@@H]1O[C@H](COP(=O)(O)OP(=O)(O)OP(=O)(O)O)[C@@H](O)[C@H]1O", "note": "[ATP]", "values": [{"measurement": "single-molecule fluorescence tracking, run length and velocity vs [ATP]", "result": "velocities are shown (mean ± s.e.m.) as a function of [ATP]"}]}]}
